# In patent US20160106439A1, “PNEUMATIC TOURNIQUET” (BIONUMERIK PHARMACEUTICALS, INC., priority 2013, published 2016):
# Read-outs that look alike come from different tables or passages of the source.
# B1: epigen: growth factor ligand of ErbB receptors (protein, UniProt Q6UW88 23-154, looked up)
# Epigen: AAVTVTPPITAQQGNWTVNKTEADNIEGPIALKFSHLCLEDHNSYCINGACAFHHELEKAICRCFTGYTGERCEHLTLTSYAVDSYEKYIAIGIGVGLLLSGFLVIFYCYIRKRCLKLKSPYNVCSGERRPL
# Tests used:
# ErbB-3 = ErbB-3 (Homo sapiens, UniProt P21860); parameters: key: the “+” and “−” symbols signify the ability and inability to activate each of the ErbB receptors, respectively; the “+” and “−” symbols signify the ability and inability to activate each of the ErbB receptors, respectively; details: ability to activate the receptor; cited from earlier work
# ErbB-2 = ErbB-2 (Homo sapiens, UniProt P04626); parameters: key: the “+” and “−” symbols signify the ability and inability to activate each of the ErbB receptors, respectively; the “+” and “−” symbols signify the ability and inability to activate each of the ErbB receptors, respectively; details: ability to activate the receptor; cited from earlier work
# ErbB-4 = ErbB-4 (Homo sapiens, UniProt Q15303); parameters: key: the “+” and “−” symbols signify the ability and inability to activate each of the ErbB receptors, respectively; the “+” and “−” symbols signify the ability and inability to activate each of the ErbB receptors, respectively; details: ability to activate the receptor; cited from earlier work
# ErbB-4, sequence (Q15303 26-1308, species assumed): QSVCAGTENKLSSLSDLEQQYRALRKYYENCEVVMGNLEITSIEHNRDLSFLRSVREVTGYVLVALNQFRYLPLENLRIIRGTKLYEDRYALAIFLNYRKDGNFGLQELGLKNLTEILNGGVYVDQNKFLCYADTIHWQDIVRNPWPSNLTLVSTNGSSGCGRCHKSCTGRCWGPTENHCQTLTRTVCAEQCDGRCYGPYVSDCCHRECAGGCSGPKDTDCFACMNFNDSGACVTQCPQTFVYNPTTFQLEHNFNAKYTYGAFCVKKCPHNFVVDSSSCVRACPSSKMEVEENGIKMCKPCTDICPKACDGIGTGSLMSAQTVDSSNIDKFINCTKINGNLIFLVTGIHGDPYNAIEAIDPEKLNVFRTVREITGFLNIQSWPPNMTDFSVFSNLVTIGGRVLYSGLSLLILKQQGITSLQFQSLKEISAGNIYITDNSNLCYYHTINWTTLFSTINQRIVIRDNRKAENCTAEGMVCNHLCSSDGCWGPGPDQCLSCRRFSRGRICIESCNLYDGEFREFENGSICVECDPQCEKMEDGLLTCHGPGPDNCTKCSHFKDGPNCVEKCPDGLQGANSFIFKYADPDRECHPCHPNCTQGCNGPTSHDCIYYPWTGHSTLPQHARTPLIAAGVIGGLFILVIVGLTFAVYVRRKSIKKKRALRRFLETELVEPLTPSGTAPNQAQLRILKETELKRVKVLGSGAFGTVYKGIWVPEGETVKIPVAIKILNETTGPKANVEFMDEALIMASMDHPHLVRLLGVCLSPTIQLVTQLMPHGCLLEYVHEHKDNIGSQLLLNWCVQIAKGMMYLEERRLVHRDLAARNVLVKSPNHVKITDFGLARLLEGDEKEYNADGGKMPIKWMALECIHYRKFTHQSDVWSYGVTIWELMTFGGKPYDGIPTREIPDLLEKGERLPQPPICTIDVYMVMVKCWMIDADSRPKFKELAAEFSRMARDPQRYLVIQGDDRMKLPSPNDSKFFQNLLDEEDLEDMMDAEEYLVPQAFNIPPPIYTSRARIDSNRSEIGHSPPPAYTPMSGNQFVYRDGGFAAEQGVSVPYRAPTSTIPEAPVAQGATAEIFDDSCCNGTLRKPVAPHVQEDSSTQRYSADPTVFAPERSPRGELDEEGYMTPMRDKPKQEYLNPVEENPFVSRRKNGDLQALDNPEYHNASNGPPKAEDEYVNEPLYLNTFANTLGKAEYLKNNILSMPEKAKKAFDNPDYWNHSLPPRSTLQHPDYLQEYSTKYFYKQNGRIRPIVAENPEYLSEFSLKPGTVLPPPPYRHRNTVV
# [1] = test system: bovine brain microtubule protein (α-/β-tubulin); assay: Microtubule protein polymerization assay (OD350) and electron microscopy; type: biochemical; details: monoaquocisplatin 36 μM
# T790M EGFR kinase = T790M EGFR kinase (Homo sapiens, UniProt P00533, T790M); assay: T790M EGFR kinase assay (ADP-glo); type: biochemical; details: for IC50: read-out: IC50 on T790M EGFR kinase activity; for potentiation of Erlotinib inhibition of T790M EGFR kinase activity: 10 μM and 100 μM ATP
# WT EGFR kinase = WT EGFR kinase (Homo sapiens, UniProt P00533); assay: WT EGFR kinase assay (ADP-glo); details: for potentiation of Erlotinib inhibition of WT EGFR kinase activity: 10 μM and 100 μM ATP
# [2] = molecular target: T1, mammalian thioredoxin reductase (TrxR) (Homo sapiens, UniProt Q16881); details: cited from earlier work
# T1 sequence (Q16881 1-499 isoform Q16881-5): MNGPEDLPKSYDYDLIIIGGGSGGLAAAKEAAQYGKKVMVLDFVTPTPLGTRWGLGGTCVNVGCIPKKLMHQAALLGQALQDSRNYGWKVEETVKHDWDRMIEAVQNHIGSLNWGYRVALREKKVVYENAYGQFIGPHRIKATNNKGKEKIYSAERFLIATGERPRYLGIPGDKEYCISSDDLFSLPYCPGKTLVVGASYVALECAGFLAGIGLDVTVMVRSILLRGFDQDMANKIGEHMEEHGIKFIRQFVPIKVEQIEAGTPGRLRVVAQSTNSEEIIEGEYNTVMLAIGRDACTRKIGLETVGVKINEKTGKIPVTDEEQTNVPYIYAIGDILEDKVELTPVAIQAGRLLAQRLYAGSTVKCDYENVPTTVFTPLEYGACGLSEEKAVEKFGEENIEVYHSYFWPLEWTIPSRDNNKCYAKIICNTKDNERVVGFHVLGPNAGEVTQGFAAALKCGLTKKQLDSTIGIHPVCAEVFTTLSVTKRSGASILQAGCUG
# [3] = molecular target: T2, glutathione reductase (GR) (Homo sapiens, UniProt P00390); details: cited from earlier work
# T2 sequence (P00390 44-522): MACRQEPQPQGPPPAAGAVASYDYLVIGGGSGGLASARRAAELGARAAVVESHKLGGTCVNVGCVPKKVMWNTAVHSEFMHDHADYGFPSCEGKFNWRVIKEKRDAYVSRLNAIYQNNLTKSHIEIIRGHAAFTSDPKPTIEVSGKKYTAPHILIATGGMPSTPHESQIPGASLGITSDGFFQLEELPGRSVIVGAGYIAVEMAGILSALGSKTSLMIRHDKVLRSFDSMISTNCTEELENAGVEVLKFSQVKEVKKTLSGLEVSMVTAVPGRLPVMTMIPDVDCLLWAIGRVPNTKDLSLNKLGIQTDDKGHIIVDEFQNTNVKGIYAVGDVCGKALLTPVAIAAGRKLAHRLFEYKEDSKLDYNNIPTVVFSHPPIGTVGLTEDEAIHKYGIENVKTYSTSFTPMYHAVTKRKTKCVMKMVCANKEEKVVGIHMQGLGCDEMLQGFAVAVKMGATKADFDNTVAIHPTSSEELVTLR
# ErbB-1 = ErbB-1 (Homo sapiens, UniProt P00533); details: ability to activate the receptor; cited from earlier work
# Recombinant human Trx [4] = molecular target: T3, Recombinant human Trx (Homo sapiens, UniProt P10599); type: biochemical; parameters: 6xHis (N); purchased Sigma (Trx); American Diagnostica (bovine TrxR); details: over MSSH and MSSCE
# T3 sequence (P10599 1-105): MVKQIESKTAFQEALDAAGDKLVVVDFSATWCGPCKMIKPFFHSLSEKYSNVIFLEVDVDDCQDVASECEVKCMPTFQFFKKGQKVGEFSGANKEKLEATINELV
# Protocol: See, Luthman M and Holmgren A. Rat liver thioredoxin and thioredoxin reductase: purification and characterization. […] All disulfides were added to reactions as 10x solutions in buffer. The total volume of each reaction was 0.1 mL. Reactions were initiated by the addition of TrxR and were incubated at 25° C. for 40 minutes. Reactions were analyzed using a Molecular Devices SpectraMax Plus UV/vis plate reader and the activity was calculated using a 4 minute linear portion of each assay.
# Recombinant human Trx [5] = molecular target: T3, Recombinant human Trx; assay: LC MS of Trypsin digested Trx after incubation with Tavocept, mesna or glutathione; type: binding; parameters: purchased Sigma (SigmaAldrich); host or cells: E. coli; details: control reactions with glutathione
# TrxR/Trx system = molecular target: T4, TrxR/Trx system (Homo sapiens, UniProt P10599); assay: NADPH oxidation by TrxR and Trx; type: biochemical; details: increasing concentrations of the substance
# T4 construct: 6xHis (N); purchased Sigma (Trx); American Diagnostica (bovine TrxR)
# T4 sequence (P10599 1-105): T3 sequence (P10599 1-105)
# [6] = IC50 on WT EGFR kinase activity, 10 μM ATP
# [7] = IC50 on WT EGFR kinase activity, 100 μM ATP
# [8] = IC50 on WT EGFR kinase activity, 250 μM ATP, conducted only once
# [9] = read-out: IC50 on WT EGFR kinase activity, 10 μM ATP
# [10] = read-out: IC50 on WT EGFR kinase activity, 100 μM ATP
# [11] = read-out: IC50 on WT EGFR kinase activity, 250 μM ATP, conducted only once
molecule,measurement,setting,value
TGF-α: growth factor ligand of ErbB receptors,ErbB-3,ErbB-3,−
same,ErbB-2,ErbB-2,−
same,ErbB-4,ErbB-4,−
"N.N.O.[Cl][Pt+] [monoaquocisplatin, reference compound]",effect of extended exposure on microtubule protein polymerization,[1],notable and reproducible loss
NC(CSSCCS(=O)(=O)O)C(=O)O (centres unmarked) [mesna-cysteine],IC50,T790M EGFR kinase; 10 μM ATP,3760 ± 260 µM
same,potentiation of Erlotinib inhibition of T790M EGFR kinase activity,T790M EGFR kinase,effectively potentiated
same,IC50,T790M EGFR kinase; 100 μM ATP,3030 ± 280 µM
same,potentiation of Erlotinib inhibition of WT EGFR kinase activity,WT EGFR kinase,effectively potentiated
same,IC50,WT EGFR kinase; [6],2750 ± 800 µM
same,IC50,WT EGFR kinase; [7],2650 ± 110 µM
same,IC50,WT EGFR kinase; [8],2870 µM
N.N.O=C([O-])C1(C(=O)[O-])CCC1.[Pt+2] [carboplatin],Inhibition of TrxR,[2],could not inhibit
same,Inhibition of GR,[3],could not inhibit
NC(CSSCCS(=O)(=O)O)C(=O)NC(CCC(=O)O)C(=O)O (centres unmarked) [mesna-cysteinylglutamate],IC50,T790M EGFR kinase; 10 μM ATP,1090 ± 190 µM
same,potentiation of Erlotinib inhibition of T790M EGFR kinase activity,T790M EGFR kinase,effectively potentiated
same,IC50,T790M EGFR kinase; 100 μM ATP,1050 ± 80 µM
same,potentiation of Erlotinib inhibition of WT EGFR kinase activity,WT EGFR kinase,effectively potentiated
same,IC50,WT EGFR kinase; [9],714 ± 120 µM
same,IC50,WT EGFR kinase; [10],815 ± 20 µM
same,IC50,WT EGFR kinase; [11],690 µM
O=C(O)CCCc1ccc(N(CCCl)CCCl)cc1 [chlorambucil],Inhibition of TrxR,[2],irreversibly inhibited
same,Inhibition of GR,[3],not GR
O=NN(CCCl)C(=O)NCCCl [carmustine],Inhibition of TrxR,[2],can inhibit
same,Inhibition of GR,[3],can inhibit
COc1cccc2c1C(=O)c1c(O)c3c(c(O)c1C2=O)C[C@@](O)(C(=O)CO)C[C@@H]3O[C@H]1C[C@H](N)[C@H](O)[C@H](C)O1 [doxorubicin],Inhibition of TrxR,[2],not inhibitors
HB-EGF: growth factor ligand of ErbB receptors,ErbB-3,ErbB-3,−
same,ErbB-1,ErbB-1,+
same,ErbB-2,ErbB-2,−
same,ErbB-4,ErbB-4,+
amphiregulin: growth factor ligand of ErbB receptors,ErbB-3,ErbB-3,−
same,ErbB-1,ErbB-1,+
same,ErbB-2,ErbB-2,−
same,ErbB-4,ErbB-4,−
NC(CSSCCS(=O)(=O)O)C(=O)NCC(=O)O (centres unmarked) [mesna-cysteinylglycine],IC50,T790M EGFR kinase; 10 μM ATP,510 ± 10 µM
same,potentiation of Erlotinib inhibition of T790M EGFR kinase activity,T790M EGFR kinase,effectively potentiated
same,IC50,T790M EGFR kinase; 100 μM ATP,410 ± 50 µM
same,potentiation of Erlotinib inhibition of WT EGFR kinase activity,WT EGFR kinase,effectively potentiated
same,IC50,WT EGFR kinase; [6],445 ± 80 µM
same,IC50,WT EGFR kinase; [7],370 ± 121 µM
same,IC50,WT EGFR kinase; [8],320 µM
EGF: growth factor ligand of ErbB receptors,ErbB-3,ErbB-3,−
same,ErbB-2,ErbB-2,−
same,ErbB-4,ErbB-4,−
COc1cccc2c1C(=O)c1c(O)c3c(c(O)c1C2=O)C[C@@](O)(C(C)=O)C[C@@H]3O[C@H]1C[C@H](N)[C@H](O)[C@H](C)O1 [daunorubicin],Inhibition of TrxR,[2],not inhibitors
O=P1(NCCCl)OCCCN1CCCl (centres unmarked) [ifosfamide],Inhibition of TrxR,[2],inhibited
betacellulin: growth factor ligand of ErbB receptors,ErbB-3,ErbB-3,−
same,ErbB-1,ErbB-1,+
same,ErbB-2,ErbB-2,−
same,ErbB-4,ErbB-4,+
CC1=C(/C=C/C(C)=C/C=C/C(C)=C\C(=O)O)C(C)(C)CCC1 [13-cis-retinoic acid],Inhibition of TrxR,[2],irreversible inhibition
"NC(CSSCCS(=O)(=O)O)C(=O)NCC(=O)O (centres unmarked) [MSSCG, mesna-cysteinyl glycine disulfide]",Substrate preference of Trx,Recombinant human Trx [4],preferred slightly
same,more inhibition of WT EGFR relative to 4 nM Erlotinib alone,"WT EGFR kinase; 10 μM ATP, 0.50 mM + 4 nM Erlotinib",28%
same,more inhibition of WT EGFR relative to 4 nM Erlotinib alone,"WT EGFR kinase; 10 μM ATP, 0.75 mM + 4 nM Erlotinib (MSSCG series)",43%
O=P1(N(CCCl)CCCl)NCCCO1 (centres unmarked) [cyclophosphamide],Inhibition of TrxR,[2],irreversibly inhibited
same,Inhibition of GR,[3],not GR
"N[C@@H](CCC(=O)N[C@@H](CS)C(=O)NCC(=O)O)C(=O)O [glutathione, γ-glutamyl-cysteinyl-glycine, reference compound]",Glutathione adduct on Trx,Recombinant human Trx [5],glutathionylated at cysteine-73 (Cys73)
NC(CCC(=O)NC(CSSCCS(=O)(=O)O)C(=O)NCC(=O)O)C(=O)O (centres unmarked) [mesna-glutathione],IC50,T790M EGFR kinase; 10 μM ATP,1280 ± 290 µM
same,potentiation of Erlotinib inhibition of T790M EGFR kinase activity,T790M EGFR kinase,effectively potentiated
same,IC50,T790M EGFR kinase; 100 μM ATP,1170 ± 10 µM
same,potentiation of Erlotinib inhibition of WT EGFR kinase activity,WT EGFR kinase,effectively potentiated
same,IC50,WT EGFR kinase; [9],724 ± 220 µM
same,IC50,WT EGFR kinase; [10],820 ± 240 µM
same,IC50,WT EGFR kinase; [11],1570 µM
N.N.[Cl][Pt][Cl] [cisplatin],Inhibition of TrxR,[2],irreversibly inhibited
same,Inhibition of GR,[3],not GR
CS(=O)(=O)OCCCCOS(C)(=O)=O [busulfan],Inhibition of TrxR,[2],irreversibly inhibited
same,Inhibition of GR,[3],not GR
epiregulin: growth factor ligand of ErbB receptors,ErbB-3,ErbB-3,−
same,ErbB-1,ErbB-1,+
same,ErbB-2,ErbB-2,−
same,ErbB-4,ErbB-4,+
O=C1[O][Pt]2([NH][C@@H]3CCCC[C@H]3[NH]2)[O]C1=O [oxaliplatin],Inhibition of TrxR,[2],irreversibly inhibited
same,Inhibition of GR,[3],not GR
N[C@@H](Cc1ccc(N(CCCl)CCCl)cc1)C(=O)O [melphalan],Inhibition of TrxR,[2],irreversibly inhibited
same,Inhibition of GR,[3],not GR
N.N.[Cl][Pt+2][Cl] [transplatin],Inhibition of TrxR,[2],irreversibly inhibited
same,Inhibition of GR,[3],not GR
neuregulin 1,ErbB-3,ErbB-3,+
same,ErbB-1,ErbB-1,−
same,ErbB-2,ErbB-2,−
same,ErbB-4,ErbB-4,+
"NC(CCSSCCS(=O)(=O)O)C(=O)O (centres unmarked) [MSSH, mesna-homocysteine disulfide]",NADPH oxidation by TrxR and Trx,TrxR/Trx system,increases
B1,ErbB-3,ErbB-3,−
same,ErbB-1,ErbB-1,+
same,ErbB-2,ErbB-2,−
same,ErbB-4,ErbB-4,−
